Holding throughout (test): relative viability (nuclei count vs DMSO), 5 days (fraction); higher = more cells survive
Compound in test [1]: CN(C)C[C@@H]1CCn2cc(c3ccccc32)C2=C(C(=O)NC2=O)c2cn(c3ccccc23)CCO1 [Ruboxistaurin] + Cc1cc(Nc2cc(N3CCN(C)CC3)nc(Sc3ccc(NC(=O)C4CC4)cc3)n2)n[nH]1 [Tozasertib] (partner 0.1 µM)
An outline of the steps:
(§1)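 Lung cancer cell lines in 1536-well plates got either a single drug or a fixed anchor-drug dose together with five library-drug doses (not always all listed) in √10 steps, by pin tool, on the day after seeding. Nuclei were counted after 5 days, and relative viability is the treated-to-vehicle ratio of nuclei counts. Values are medians of duplicate plates.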

Compound in test [2]: CN(C)C[C@@H]1CCn2cc(c3ccccc32)C2=C(C(=O)NC2=O)c2cn(c3ccccc23)CCO1 [Ruboxistaurin] + CC1(C)CCC(c2ccc(Cl)cc2)=C(CN2CCN(c3ccc(C(=O)NS(=O)(=O)c4ccc(N[C@H](CCN5CCOCC5)CSc5ccccc5)c(S(=O)(=O)C(F)(F)F)c4)cc3)CC2)C1 [Navitoclax] (partner 0.5 µM)
An outline of the steps: as §1

Compound in test [3]: CN(C)C[C@@H]1CCn2cc(c3ccccc32)C2=C(C(=O)NC2=O)c2cn(c3ccccc23)CCO1 [Ruboxistaurin] + COc1cccc2cc(-c3nc([C@H]4CC[C@H](C(=O)O)CC4)n4ncnc(N)c34)[nH]c12 [OSI-027] (partner 0.5 µM)
An outline of the steps: as §1

Compound in test [4]: CN(C)C[C@@H]1CCn2cc(c3ccccc32)C2=C(C(=O)NC2=O)c2cn(c3ccccc23)CCO1 [Ruboxistaurin] + COc1cc2c(Oc3ccc(NC(=O)C4(C(=O)Nc5ccc(F)cc5)CC4)cc3F)ccnc2cc1OCCCN1CCOCC1 [Foretinib] (partner 0.25 µM)
The procedure, abridged: as §1

Compound in test [5]: CN(C)C[C@@H]1CCn2cc(c3ccccc32)C2=C(C(=O)NC2=O)c2cn(c3ccccc23)CCO1 [Ruboxistaurin] + Nc1nc2[nH]cc(CCc3ccc(C(=O)N[C@@H](CCC(=O)O)C(=O)O)cc3)c2c(=O)[nH]1 [Pemetrexed] (partner 0.2 µM)
An outline of the steps:
as §1

As to LXF-289, the relative viability in test [1] (first compound 0.08 µM) was 0.216; in test [1] (first compound 0.8 µM), 0.157; in test [1] (first compound 2.53 µM) it was 0.195; in test [1] (first compound 8 µM), 0.209; in test [2] (first compound 0.08 µM), 0.967; in test [2] (first compound 0.8 µM) it was 0.928. The relative viability is 0.931 in test [2] (first compound 2.53 µM); 1.04 in test [2] (first compound 8 µM); 0.804 in test [3] (first compound 0.08 µM); 0.74 in test [3] (first compound 0.8 µM); 0.9 in test [3] (first compound 2.53 µM); 0.623 in test [3] (first compound 8 µM). The relative viability was 1.01 in test [4] (first compound 0.08 µM); 0.895 in test [4] (first compound 0.8 µM); 0.966 in test [4] (first compound 2.53 µM); 1.04 in test [4] (first compound 8 µM); 0.884 in test [5] (first compound 0.08 µM); 0.91 in test [5] (first compound 0.8 µM). Besides, the relative viability in test [5] (first compound 2.53 µM) is 0.906; in test [5] (first compound 8 µM), 1.02.
As for NCI-H23, the relative viability stood at 0.446 in test [1] (first compound 0.08 µM); 0.304 in test [1] (first compound 0.8 µM); 0.357 in test [1] (first compound 2.53 µM); 0.368 in test [1] (first compound 8 µM); 0.897 in test [2] (first compound 0.08 µM); 0.59 in test [2] (first compound 0.8 µM). The relative viability in test [2] (first compound 2.53 µM) was 0.91; in test [2] (first compound 8 µM) it was 0.68; in test [3] (first compound 0.08 µM), 0.601; in test [3] (first compound 0.8 µM), 0.448; in test [3] (first compound 2.53 µM) it was 0.593; in test [3] (first compound 8 µM), 0.457. The relative viability amounted to 1 in test [4] (first compound 0.08 µM); 0.897 in test [4] (first compound 0.8 µM); 1.1 in test [4] (first compound 2.53 µM); 0.936 in test [4] (first compound 8 µM); 0.73 in test [5] (first compound 0.08 µM); 0.541 in test [5] (first compound 0.8 µM). Besides, the relative viability in test [5] (first compound 2.53 µM) was determined as 0.666; in test [5] (first compound 8 µM), 0.45.
For NCI-H322M, the relative viability in test [1] (first compound 0.08 µM) worked out at 0.49; in test [1] (first compound 0.8 µM), 0.426; in test [1] (first compound 2.53 µM), 0.431; in test [1] (first compound 8 µM), 0.346; in test [2] (first compound 0.08 µM), 1.2; in test [2] (first compound 0.8 µM) it was 1.09. For the same cell line, the relative viability was determined as 1.24 in test [2] (first compound 2.53 µM); 1.19 in test [2] (first compound 8 µM); 0.646 in test [3] (first compound 0.08 µM); 0.514 in test [3] (first compound 0.8 µM); 0.514 in test [3] (first compound 2.53 µM); 0.377 in test [3] (first compound 8 µM). Besides, the relative viability in test [4] (first compound 0.08 µM) is 0.947; in test [4] (first compound 0.8 µM), 0.922; in test [4] (first compound 2.53 µM), 0.981; in test [4] (first compound 8 µM), 0.627; in test [5] (first compound 0.08 µM) it was 0.646; in test [5] (first compound 0.8 µM), 0.528. Besides, the relative viability in test [5] (first compound 2.53 µM) stood at 0.596; in test [5] (first compound 8 µM), 0.47.
For NCI-H441, the relative viability in test [1] (first compound 0.08 µM) amounted to 0.663; in test [1] (first compound 0.8 µM), 0.594; in test [1] (first compound 2.53 µM), 0.638; in test [1] (first compound 8 µM) it was 0.554; in test [2] (first compound 0.08 µM), 0.682; in test [2] (first compound 0.8 µM) it was 0.464. For the same cell line, the relative viability in test [2] (first compound 2.53 µM) is 0.928; in test [2] (first compound 8 µM), 0.66; in test [3] (first compound 0.08 µM) it was 0.65; in test [3] (first compound 0.8 µM), 0.474; in test [3] (first compound 2.53 µM) it was 0.607; in test [3] (first compound 8 µM), 0.456. Moreover, the relative viability in test [4] (first compound 0.08 µM) stood at 0.87; in test [4] (first compound 0.8 µM) it was 0.884; in test [4] (first compound 2.53 µM), 1.18; in test [4] (first compound 8 µM) it was 0.938; in test [5] (first compound 0.08 µM) it was 0.254; in test [5] (first compound 0.8 µM), 0.307. Moreover, the relative viability in test [5] (first compound 2.53 µM) was 0.287; in test [5] (first compound 8 µM), 0.278.
Take NCI-H460: the relative viability worked out at 0.411 in test [1] (first compound 0.08 µM); 0.257 in test [1] (first compound 0.8 µM); 0.405 in test [1] (first compound 2.53 µM); 0.29 in test [1] (first compound 8 µM); 1.2 in test [2] (first compound 0.08 µM); 1.03 in test [2] (first compound 0.8 µM). In addition, the relative viability in test [2] (first compound 2.53 µM) is 1.16; in test [2] (first compound 8 µM) it was 0.935; in test [3] (first compound 0.08 µM) it was 0.604; in test [3] (first compound 0.8 µM), 0.557; in test [3] (first compound 2.53 µM), 0.501; in test [3] (first compound 8 µM), 0.217. Also, the relative viability in test [4] (first compound 0.08 µM) stood at 1.03; in test [4] (first compound 0.8 µM), 0.904; in test [4] (first compound 2.53 µM), 1.08; in test [4] (first compound 8 µM) it was 0.996; in test [5] (first compound 0.08 µM), 0.0661; in test [5] (first compound 0.8 µM), 0.0571. Further, the relative viability in test [5] (first compound 2.53 µM) was found to be 0.0621; in test [5] (first compound 8 µM), 0.0636.
On to NCI-H520, for which the relative viability in test [1] (first compound 0.08 µM) came to 0.477; in test [1] (first compound 0.8 µM), 0.456; in test [1] (first compound 2.53 µM) it was 0.398; in test [1] (first compound 8 µM), 0.456; in test [2] (first compound 0.08 µM), 1.24; in test [2] (first compound 0.8 µM) it was 0.984. Moreover, the relative viability in test [2] (first compound 2.53 µM) came to 1.19; in test [2] (first compound 8 µM), 0.955; in test [3] (first compound 0.08 µM) it was 0.192; in test [3] (first compound 0.8 µM), 0.258; in test [3] (first compound 2.53 µM), 0.233; in test [3] (first compound 8 µM), 0.218. Also, the relative viability amounted to 0.628 in test [4] (first compound 0.08 µM); 0.693 in test [4] (first compound 0.8 µM); 1.05 in test [4] (first compound 2.53 µM); 0.786 in test [4] (first compound 8 µM); 0.666 in test [5] (first compound 0.08 µM); 0.506 in test [5] (first compound 0.8 µM). Further, the relative viability in test [5] (first compound 2.53 µM) is 0.532; in test [5] (first compound 8 µM), 0.494.
As for NCI-H596, the relative viability in test [1] (first compound 0.08 µM) was determined as 0.932; in test [1] (first compound 0.8 µM) it was 0.8; in test [1] (first compound 2.53 µM) it was 0.729; in test [1] (first compound 8 µM) it was 0.889; in test [2] (first compound 0.08 µM), 0.962; in test [2] (first compound 0.8 µM), 0.845. Further, the relative viability in test [2] (first compound 2.53 µM) is 0.983; in test [2] (first compound 8 µM), 0.69; in test [3] (first compound 0.08 µM), 0.811; in test [3] (first compound 0.8 µM), 0.552; in test [3] (first compound 2.53 µM) it was 0.799; in test [3] (first compound 8 µM), 0.508. Besides, the relative viability in test [4] (first compound 0.08 µM) turned out to be 0.817; in test [4] (first compound 0.8 µM), 0.671; in test [4] (first compound 2.53 µM), 0.766; in test [4] (first compound 8 µM), 0.679; in test [5] (first compound 0.08 µM), 0.542; in test [5] (first compound 0.8 µM), 0.473. Besides, the relative viability in test [5] (first compound 2.53 µM) was 0.478; in test [5] (first compound 8 µM), 0.444.

For the origin of these results see the supplement of paper PMC10307832.
